{
  "source": "paper PMC9894685",
  "about": "“Abscisic acid agonists suitable for optimizing plant water use” (Frontiers in Plant Science, 2023)",
  "key": {"[1]": {"test_system": "T1, RCAR11-ABI2", "T1 construct": "6xHis (N); made in house; host or cells: Escherichia coli BL21", "assay": "In vitro phosphatase assay, ABI2 with RCAR11", "assay_type": "biochemical, Arabidopsis thaliana", "settings": "esterase-treated", "description": "Expression, purification, and analysis of RCAR and PP2C proteins were performed essentially as described ([Ruschhaupt et al., 2019]). Briefly, the ABA receptors RCAR1, RACR8, and RCAR11 were expressed with an aminoterminal histidine tag using the pSEVA431_LII_6xHIS::RCAR1/RCAR8/RCAR11. ABA coreceptors were expressed as histidine-tagged fusions with the maltose-binding protein using the pSEVA431_LII_6xHIS::MBP::ABI2/HAB1. All constructs were transformed and expressed in Escherichia coli strain BL21 and purified to homogeneity according to supplier’s instruction (GE Healthcare, Chicago, USA). The receptor assay was performed with 100 nM PP2C and a two-fold molar excess of RCAR. Values are means ± SD of three replicates. […] The maximum inhibition was set to 100% in the figures. The phosphatase activity was measured using 4-methylumbelliferyl-phosphate as a substrate ([Meinhard and Grill, 2001]). The increase in fluorescence was recorded over 25 min with excitation and emission wavelengths at 360 and 460 nm, respectively, using a Synergy 2 plate reader (Bio-Tec, Winooski, USA)."}, "[2]": {"test_system": "wheat plants", "assay": "Foliar administration and thermal imaging of leaf temperature, wheat", "assay_type": "in vivo, Triticum aestivum", "settings": "100 μM, 24 h after administration", "description": "(§1) Thermal imaging was carried out as described ([Yang et al., 2016]). An assessment of the efficacy of ABA and CCPs was conducted by using 35-day-old Arabidopsis and 30-day-old wheat plants. Stock solutions (10 mM) of CCPs and ABA dissolved in dimethyl sulfoxide (DMSO) were diluted to the respective ligand concentrations (10, 30, 100 µM) in water containing 0.01% (v/v) Tween 20. Aqueous Tween 20 solutions supplemented with 0.1%, 0.3%, and 1% DMSO served for mock treatments. The solutions were sprayed onto the leaf surface until the run-off of droplets. One day after application (unless otherwise indicated), thermal imaging was conducted using the InfraTec instrument (IR-TCM 384, InfraTec, Dresden, Germany). The leaf temperature of Arabidopsis was determined as the average temperature of all leaves. The leaf temperature of wheat was determined as described ([Yang et al., 2019])."}, "[3]": {"test_system": "Arabidopsis plants", "assay": "Foliar administration and thermal imaging of leaf temperature (transpiration), Arabidopsis", "assay_type": "in vivo, Arabidopsis thaliana", "settings": "for Leaf temperature increase, activity compared to ABA: 10, 30, 100 µM, one day after application", "description": "as §1"}, "[4]": {"test_system": "Arabidopsis aba2-1 protoplasts", "assay": "Transient ABA response in Arabidopsis protoplasts (pRD29B::LUC, RCAR11 and ABI2 effectors)", "assay_type": "cell-based, Arabidopsis thaliana", "description": "Preparation of Arabidopsis protoplasts, transfection of the effector DNA, and analysis of LUC activity were performed as described ([Tischer et al., 2017]). In essence, 10^5 mesophyll protoplasts from leaves of the ABA deficient mutant aba2-1 ([Schwartz et al., 1997]) were transfected with 4 µg DNA of the pRD29B::LUC construct as an ABA-responsive reporter and 3 µg of p35S::GUS (β-glucuronidase reporter gene) expression cassette as an internal control for normalization. In addition, 3 µg p35S::RCAR11 or the empty vector with the same expression cassette were co-expressed with 0.1 µg p35S::ABI2 effector constructs ([Tischer et al., 2017]), and the ligand-dependent induction of ABA-responsive reporter expression were assessed after incubation at 22°C. The expression of LUC and GUS was determined 18 h after transfection and ligand administration."}, "[5]": {"assay": "LC-MS log p", "assay_type": "physicochemical", "description": "Cyano cyclopropyl ABA analogs were provided by Bayer (Division Crop Science, Höchst, Germany). All CCPs, except CCP8, were synthesized as described ([Frackenpohl et al., 2018]). For the synthesis of CCP8, ethyl-(2Z)-6-(1-cyanocyclopropyl)-3-ethyl-6-hydroxy-7-methyloct-2-en-4-ynoate, copper (I) iodide (7 mg, […]) and bis (triphenylphosphine) palladium (II) chloride (19 mg, 0.03 mmol) were charged under argon, and toluene (3 mL) together with ethyl (2Z)-3-iodopent-2-enoate (233 mg, 0.9 mmol; column chromatography purification of a crude product as described by [Frackenpohl et al., 2018]) were added at room temperature. After stirring for 10 min, 1-(3-hydroxy-4-methylpent-1-yn-3-yl) cyclopropanecarbonitrile (150 mg, 0.9 mmol; synthesis as describe by [Frackenpohl et al., 2018]) dissolved in toluene (3 mL) and diisopropylamine (0.4 mL, 2.8 mmol) were added. The resulting reaction mixture was stirred for 3 h prior to addition of water. The aqueous phase was extracted repeatedly with dichloromethane. The combined organic phases were dried over magnesium sulphate, filtered, and concentrated under reduced pressure. […]"}, "[6]": {"molecular_target": "ABI2 (Arabidopsis thaliana) (UniProt O04719)", "sequence (O04719 whole entry)": "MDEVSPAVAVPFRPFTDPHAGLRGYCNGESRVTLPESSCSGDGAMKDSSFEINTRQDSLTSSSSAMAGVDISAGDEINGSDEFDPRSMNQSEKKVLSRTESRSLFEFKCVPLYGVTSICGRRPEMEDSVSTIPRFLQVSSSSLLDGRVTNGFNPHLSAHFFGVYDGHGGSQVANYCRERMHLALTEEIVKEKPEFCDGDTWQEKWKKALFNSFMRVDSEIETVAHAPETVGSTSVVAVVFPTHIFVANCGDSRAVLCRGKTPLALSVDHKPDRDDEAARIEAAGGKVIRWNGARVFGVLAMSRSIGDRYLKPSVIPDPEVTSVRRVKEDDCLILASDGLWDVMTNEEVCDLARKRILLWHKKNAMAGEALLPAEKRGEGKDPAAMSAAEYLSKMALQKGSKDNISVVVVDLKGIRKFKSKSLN"}},
  "note": "Entries after “also recorded” stand apart in the source; their conditions may differ.",
  "data": [
    {"compound": "COC(=O)/C=C(\\C=C\\C(O)(C(C)C)C1(C#N)CC1)C(F)(F)F", "note": "(stereo not shown) [CCP4]", "values": [
      {"measurement": "Activity with RCAR11-ABI2 receptor complex compared to ABA", "setting": "[1]", "value": "slightly lower activity than ABA"},
      {"measurement": "Leaf temperature increase, activity compared to ABA", "setting": "[2]", "value": "somewhat less active"},
      {"measurement": "Leaf temperature increase, activity compared to ABA", "setting": "[3]", "value": "moderately higher activity compared to ABA"}
    ]},
    {"compound": "COC(=O)/C=C(\\C=C\\C(O)(C1CC1)C1(C#N)CC1)C(F)(F)F", "note": "(stereo not shown) [CCP5]", "values": [
      {"measurement": "Activity with RCAR11-ABI2 receptor complex compared to ABA", "setting": "[1]", "value": "slightly lower activity than ABA"},
      {"measurement": "Concentration for half-maximum inhibition of ABI2 relative to ABA", "setting": "[1]; approximately 60% conversion into free acid", "value": "twofold"},
      {"measurement": "Leaf temperature increase, activity compared to ABA", "setting": "[2]", "value": "somewhat less active"},
      {"measurement": "Induction of ABA signaling compared to ABA", "setting": "[4]; aba2-1 protoplasts, 18 h ligand exposure", "value": "most active compound"},
      {"measurement": "Higher induction rates than ABA", "setting": "[4]; at different ligand concentrations", "value": "up to 60%"},
      {"measurement": "Potency in reducing transpiration compared to ABA", "setting": "[3]; 10 µM", "value": "more potent than 100 µM ABA"},
      {"measurement": "Leaf temperature increase, activity compared to ABA", "setting": "[3]", "value": "more efficacious than ABA and even exceeding the efficacy of CCP1 to CCP3"},
      {"measurement": "Duration of persistent response", "setting": "[3]; 10 and 30 µM ligand treatment", "value": 10, "unit": "days"},
      {"measurement": "Potency relative to ABA", "setting": "[3]; 10 and 30 µM ligand vs 100 µM ABA", "value": "more than tenfold; also recorded: more than ten times"},
      {"measurement": "Duration of effect relative to ABA", "setting": "[3]; 10 and 30 µM ligand vs ABA", "value": "approximately three times"},
      {"measurement": "Efficiency in minimizing transpiration compared to ABA", "setting": "[3]; foliar application", "value": "by an order of magnitude more efficient than ABA"},
      {"measurement": "Activity and persistence of minimized transpiration compared to ABA", "setting": "[3]; single application 100 µM, recorded for 19 days", "value": "more active and persistent than ABA"}
    ]},
    {"compound": "COC(=O)/C=C(\\C=C\\C(O)(C1CCCC1)C1(C#N)CC1)C(F)(F)F", "note": "(stereo not shown) [CCP6]", "values": [
      {"measurement": "Activity with RCAR11-ABI2 receptor complex compared to ABA", "setting": "[1]", "value": "slightly lower activity than ABA"},
      {"measurement": "Leaf temperature increase, activity compared to ABA", "setting": "[3]", "value": "somewhat lower efficacy"}
    ]},
    {"compound": "CCOC(=O)/C=C(\\C#CC(O)(C(C)C)C1(C#N)CC1)CC", "note": "(stereo not shown) [CCP8, ethyl-(2Z)-6-(1-cyanocyclopropyl)-3-ethyl-6-hydroxy-7-methyloct-2-en-4-ynoate]", "values": [
      {"measurement": "chromatographic logP", "setting": "[5]", "value": 1.39}
    ]},
    {"compound": "RCAR11/PYR1 (from UniProt O49686 1-191) (receptor)", "values": [
      {"measurement": "induction of the ABRE-LUC reporter in yeast expressing RCAR11, ABI2, OST1 and ABF2, with 30 µM ABA or CCP1 against mock-treated cells (dose series with ABA, CCP1, CCP2 in Figure 2A)", "setting": "[6]", "value": 8, "unit": "fold"}
    ]}
  ]
}
